Reference: patent publication EP3492066A1, “COSMETIC PREPARATIONS HAVING A CALMING EFFECT” (Beiersdorf AG, priority 2010, dated 2012)

What was measured:
Probandinnen [1] = experiment: Olfactometer test with psychophysiological measurement (blood volume pulse amplitude, heart rate) versus placebo; format: in vivo, Menschen; settings: for Blutvolumenpuls Amplitude (Abbildung 1): 0,025% Tetrahydro-6-pentyl-2H-pyran-2-one (N=9), 0,075% 2,6-Dimethyl-7-octen-2-ol (N=10), gegenüber Placebokontrolle Propylenglycol (N=10); for Blutvolumenpuls Amplitude: gegenüber der Placebokontrolle (Propylenglykol), 5 min fragrance by olfactometer; for Änderung der Herzrate: normalised
Source text: Es wurde in weiteren Tests die beruhigende Wirkung der Duftstoffe 6-Methyl-5-Hepten-2-one, Octan-2-one, Heptan-2-one, Nonan-2-one, 5-hexyldihydro-5-methyl-2(3H)-furanone, Tetrahydro-6-pentyl-2H-pyran-2-one, Octanal und 2,6-Dimethyl-7-octen-2-ol auf den Menschen untersucht. Dazu wurde ein Testdesign gewählt, bei dem mit Hilfe eines Olfaktometers (Burghart) kosmetisch einsetzbare und kommerziell erhältliche Duftstoffe an die Nase des Probanden gebracht wurden. Die Duftstoffe wurden in Propylenglykol (Caelo) gelöst. Als Placebokontrolle wurde entsprechend ebenfalls Propylenglykol eingesetzt
Die Probandinnen wurden in einer bequemen, leicht nach hinten gelehnten Haltung auf einem Sessel platziert. Das Ende des Olfaktometerschlauches wurde im Abstand von etwa 10 cm vor der Nase des Probanden platziert und mit Hilfe eines Stativs fixiert. Der Versuchsaufbau (Nexus, Olfaktometer) wurde von den Probandinnen mit Hilfe einer spanischen Wand abgeschirmt, um die Teilnehmerinnen nicht durch das Messgeschehen abzulenken. Die Messungen fanden in einem hellen, gut gelüfteten, auf 21°C temperierten Raum statt.
An den Untersuchungen nahmen Probandinnen im Alter von 20 bis 40 Jahren teil. Das Durchschnittsalter betrug 31 Jahre. Die Probandinnen besaßen einen BMI zwischen 19 und 25. Die Probandinnen wurden gebeten, einen Tag vor Studienbeginn auf Parfum und Body Lotion zu verzichten. Am Messtag selbst durften die Teilnehmerinnen weder Parfum, noch parfümierte Deoprodukte, Body Lotions, Gesichtscreme, Handcreme und Haarspray benutzen. Sie mussten auf Kaffee, Schwarztee, Fruchtsäfte und Zigaretten verzichten und durften 30 min vor Testbeginn nichts mehr essen und ausschließlich Wasser trinken.
Die Einstellungen am Olfaktometer sahen einen Luftstrom von 4 L/min vor. Die externe Druckluft betrug 2 bar. Die Probandinnen wurden mit den entsprechenden Messelektroden bestückt und akklimatisierten zunächst für 1 min. Diese Zeit wurde gleichzeitig genutzt, um sicherzustellen, dass sich die Elektroden zur Bestimmung psychophysiologischer Parameter in einem schwankungsfreien und messbereiten Zustand befinden. Alle Probandinnen erhielten im Anschluss für 5 min Kontrollluft ohne Duft. Während dieser Zeit sollten alle Probandinnen einen emotional neutralen Zustand erreichen. Anschließend erhielten die Probandinnen für 5 min einen Duftstoff, der so niedrig konzentriert war, dass er nicht unangenehm oder gar stechend empfunden wurde. Alle Duftstoffe wurden in Propylenglykol gelöst. Als Placebokontrolle diente ebenfalls Propylenglykol. Während der gesamten 10 min wurden die psychophysiologischen Messparameter dermale Aktivität, Herzrate und Blutvolumenpuls mit Hilfe des Messgeräts NeXus und der Software Biotrace (Mind Media B.V.) erfasst. Die Differenz zwischen maximalem und minimalem Blutvolumen innerhalb eines Herzzyklus nennt man Blutvolumenpuls Amplitude. Dieser Wert sinkt bei psychischer Belastung ab. Umgekehrt kann ein Anstieg als Entspannungsreaktion interpretiert werden.
Um eine gute Vergleichbarkeit der Messdaten der verschiedenen Testgruppen gewährleisten zu können, wurden die Rohdaten der Messung normiert. Dafür wurde der Mittelwert der BVP Amplitude 1 min vor Duftapplikation von allen anderen Messwerten abgezogen. Die Summe der Differenzen ergibt die Änderung der BVP Amplitude in µV.

Probandinnen [2] = experiment: Short stress test (unpleasant pictures, loud drum rhythm) with Self-Assessment Manikin (SAM) rating of nervousness; format: in vivo, Menschen; settings: im Mittel, compared with Placebo-behandelte Probandinnen
Protocol: Zur Ergänzung der zuvor ermittelten Daten wurde mit den Probandinnen ein kurzer Stresstest durchgeführt, bei dem sie nach einer Anfangsentspannung für 1 min einer schnellen Folge von unangenehmen Bildern (Spinnen, Feuer, etc.) auf einem Fernsehbildschirm ausgesetzt wurden. Die visuellen Reize wurden von einem lauten Trommelrhythmus begleitet. Vor und nach dem Stresstest wurden die Probandinnen gebeten, mit Hilfe eines Self-Assessment Manikins (SAM), [formula] ihre eigene Nervosität zu bewerten.
Beispielhaft sind in Abbildung 2 die Werte des SAM-Fragebogens für Nervosität für 2,6-Dimethyl-7-octen-2-ol und Tetrahydro-6-pentyl-2H-pyran-2-one dargestellt. Abbildung 2 zeigt die Angaben der Probandinnen zu ihrer Nervosität vor und nach dem Stresstest als Differenz (nachher minus vorher).

Row | Structure (SMILES) | Blutvolumenpuls Amplitude (Probandinnen [1]) | Stress-vermittelte Änderung der Nervosität (SAM) (Probandinnen [2]) | also measured
1 | C=CC(C)CCCC(C)(C)O (stereo not shown) [2,6-Dimethyl-7-octen-2-ol] | Anstieg | geringeren Stress-vermittelten Änderung der Nervosität | Blutvolumenpuls Amplitude (Abbildung 1) (Probandinnen [1]): Anstieg
2 | CCCCCCC1(C)CCC(=O)O1 (stereo not shown) [5-hexyldihydro-5-methyl-2(3H)-furanone] | Beruhigungs- bzw. Entspannungsreaktion | geringeren Stress-vermittelten Änderung der Nervosität | 
3 | CC(=O)CCC=C(C)C [6-Methyl-5-Hepten-2-one] | Beruhigungs- bzw. Entspannungsreaktion | geringeren Stress-vermittelten Änderung der Nervosität | 
4 | CCCCCC(C)=O [Heptan-2-one] | Beruhigungs- bzw. Entspannungsreaktion | geringeren Stress-vermittelten Änderung der Nervosität | 
5 | CCCCCCCC(C)=O [Nonan-2-one] | Beruhigungs- bzw. Entspannungsreaktion | geringeren Stress-vermittelten Änderung der Nervosität | 
6 | CCCCCCC(C)=O [Octan-2-one] | Beruhigungs- bzw. Entspannungsreaktion | geringeren Stress-vermittelten Änderung der Nervosität | 
7 | CCCCCCCC=O [Octanal] | Beruhigungs- bzw. Entspannungsreaktion | geringeren Stress-vermittelten Änderung der Nervosität | 
8 | CCCCCC1CCCC(=O)O1 (stereo not shown) [Tetrahydro-6-pentyl-2H-pyran-2-one] | Anstieg | geringeren Stress-vermittelten Änderung der Nervosität | Blutvolumenpuls Amplitude (Abbildung 1) (Probandinnen [1]): Anstieg; Änderung der Herzrate (Probandinnen [1]; Duftphase, Zeit 300 s, 0,025% in Propylenglykol): -2,51 bpm; Änderung der Herzrate (Probandinnen [1]; Duftphase, Zeit 315 s, 0,025% in Propylenglykol): -3,27 bpm; Änderung der Herzrate (Probandinnen [1]; Duftphase, Zeit 330 s, 0,025% in Propylenglykol): -2,71 bpm; Änderung der Herzrate (Probandinnen [1]; Duftphase, Zeit 435 s, 0,025% in Propylenglykol): -1,94 bpm; Änderung der Herzrate (Probandinnen [1]; Duftphase, Zeit 540 s, 0,025% in Propylenglykol): -2,91 bpm; Änderung der Herzrate (Probandinnen [1]; Duftphase, Zeit 585 s, 0,025% in Propylenglykol): -2,44 bpm; Änderung der Herzrate (Probandinnen [1]; Kontrollluft (before fragrance application), Zeit 30 s, 0,025% group): -1,26 bpm; Änderung der Herzrate (Probandinnen [1]; Kontrollluft (before fragrance application), Zeit 90 s, 0,025% group): -1,26 bpm; Änderung der Herzrate (Probandinnen [1]; Kontrollluft (before fragrance application), Zeit 135 s, 0,025% group): -1,65 bpm; Änderung der Herzrate (Probandinnen [1]; Kontrollluft (before fragrance application), Zeit 180 s, 0,025% group): -2,16 bpm; Änderung der Herzrate (Probandinnen [1]; Kontrollluft (before fragrance application), Zeit 225 s, 0,025% group): -0,63 bpm; Änderung der Herzrate (Probandinnen [1]; Kontrollluft (before fragrance application), Zeit 285 s, 0,025% group): -0,02 bpm; Herzrate (Probandinnen [1]; result in words, im Vergleich zur Placebokontrolle, after fragrance application): Senkung der Herzrate
